Where two headings read alike, the source gives them in different places.
Legend:
thrombin = thrombin (Homo sapiens, UniProt P00734); test: Thrombin enzyme inhibition assay (purified enzyme); assay type: biochemical
native Factor XIa = molecular target: T1, native Factor XIa (Homo sapiens, UniProt P03951); test: Factor XIa enzyme inhibition assay (fluorogenic substrate pyroGlu-Pro-Arg-AMC); assay type: biochemical
T1 construct: cleavage generates the same light chain segment as is found for human Factor XIa protein; purchased Haematological Associates FXIA01
T1 sequence (P03951 388-625 limits assumed): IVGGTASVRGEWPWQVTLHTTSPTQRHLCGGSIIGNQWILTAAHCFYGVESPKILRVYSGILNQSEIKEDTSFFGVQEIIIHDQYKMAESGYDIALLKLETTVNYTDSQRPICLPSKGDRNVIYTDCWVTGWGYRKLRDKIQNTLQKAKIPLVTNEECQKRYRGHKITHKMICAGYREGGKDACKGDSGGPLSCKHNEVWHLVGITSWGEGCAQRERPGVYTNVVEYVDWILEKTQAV
T1 sequence (P03951 19-387 partner limits assumed): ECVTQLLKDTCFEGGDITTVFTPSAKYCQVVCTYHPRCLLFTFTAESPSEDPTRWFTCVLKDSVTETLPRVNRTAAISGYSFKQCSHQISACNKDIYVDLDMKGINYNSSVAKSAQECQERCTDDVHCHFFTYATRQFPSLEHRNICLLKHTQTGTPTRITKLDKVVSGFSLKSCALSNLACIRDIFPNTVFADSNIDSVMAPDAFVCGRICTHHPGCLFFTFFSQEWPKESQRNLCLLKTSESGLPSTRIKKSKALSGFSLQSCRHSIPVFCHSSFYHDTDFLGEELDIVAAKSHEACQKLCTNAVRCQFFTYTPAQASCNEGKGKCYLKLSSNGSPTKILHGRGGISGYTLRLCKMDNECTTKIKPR
Protocol: Potential inhibitors of Factor XIa were evaluated using a modification of the above assay. […] This substrate had the p-nitroanaline group replaced with 7-methylaminocoumarin (AMC). […] Inhibitors were tested by serial dilution over an appropriate range to yield a dose response curve for determination of the inhibitors' IC50 values. The assay mixture was incubated for 30 minutes at 30° C., and the fluorescent yield was measured using a PE-Wallac Victor 2 Plate Reader. Dose response curves were fit to Equation 1 in which A is the maximum inhibition, B is the minimum inhibition, C is the IC50, and D is the Hill coefficient.
Potential inhibitors of Factor XIa were evaluated using the following assay. […] This substrate had the p-nitroanaline group replaced with 7-methylaminocoumarin (AMC).
Inhibitors were tested by serial dilution over an appropriate range to yield a dose response curve for determination of the inhibitors' IC50 value. The assay mixture was incubated for 30 minutes at 30° C., and the fluorescent yield measured using a PE-Wallac VICTOR2™ Plate Reader. Dose response curves were fit to equation 1 below in which A is the maximum inhibition, B is the minimum inhibition, C is the IC50, and D is the Hill coefficient.

Factor Xa = Factor Xa (Homo sapiens, UniProt P00742); test: Factor Xa enzyme inhibition assay (purified enzyme); assay type: biochemical
Sequence of Factor Xa (P00742 235-488 limits assumed): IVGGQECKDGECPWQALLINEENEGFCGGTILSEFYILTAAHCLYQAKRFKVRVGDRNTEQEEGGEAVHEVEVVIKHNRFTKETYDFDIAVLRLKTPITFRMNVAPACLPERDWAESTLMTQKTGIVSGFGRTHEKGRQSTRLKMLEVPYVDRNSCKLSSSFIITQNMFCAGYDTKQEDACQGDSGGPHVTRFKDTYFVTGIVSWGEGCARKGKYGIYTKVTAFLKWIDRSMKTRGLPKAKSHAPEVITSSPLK
Sequence of Factor Xa (P00742 41-179 partner limits assumed): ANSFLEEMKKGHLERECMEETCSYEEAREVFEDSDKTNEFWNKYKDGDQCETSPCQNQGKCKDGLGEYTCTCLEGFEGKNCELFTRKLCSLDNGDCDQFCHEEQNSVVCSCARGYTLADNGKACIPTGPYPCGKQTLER

rat Factor XIa = test: Inhibition of rat Factor XIa compared with native human Factor XIa; assay type: biochemical; settings: rat Factor XIa vs native human Factor XIa
venous thrombosis = test: Rat venous thrombosis model (stenosis of inferior vena cava with hypotonic saline infusion); assay type: in vivo
Protocol: Compound 22 was administered as a continuous intravenous infusion via the femoral vein commenced 15 minutes prior to the thrombotic challenge. Thrombus mass was assessed at 60 minutes following challenge. Results are expressed as the percentage of the vehicle mean.
Briefly, male Sprague-Dawley rats (300–400 g) were anesthetized using ketamine/xylazine I.M. A midline laparotomy was performed, and the vena cava was visualized and gently separated from the descending aorta using cotton swabs. Both iliolumbar veins were ligated with suture (3–0 silk). A loose ligature (3–0 silk) was placed around the vena cava distal to the renal veins. A 25G butterfly bent at a 90-degree angle and attached to a 5 cc syringe filled with 2.5 mL of hypotonic saline (0.225%) was inserted into the vena cava at the level of the iliolumbar veins and glued into place using VETBOND™. A 26G needle bent to a 90-degree angle was then tied tightly to the vena cava, using the loose ligature. An atraumatic clamp was placed on the vena cava proximal to the iliac bifurcation, and the hypotonic saline manually infused at a rate of 10 mL/minutes. The atraumatic clamp was removed, along with the 26G needle, creating a 26G stenosis. Organs were carefully replaced, and animals were kept normothermic until sacrifice. Animals were sacrificed by anesthetic overdose at 10 or 60 minutes post thrombus induction. Following sacrifice, the vena cava was isolated using hemostats, and the clot(s) was dissected out. Clots were removed, blotted on gauze, and then immediately weighed using an analytical balance.
Compounds under investigation along with vehicles and positive controls (heparin, enoxaparin) were administered intravenously via a catheter (PE-50 tubing) implanted in the jugular or femoral vein. In some studies, rats were administered a bolus of the test article (4 mL/kg) via the venous catheter immediately prior to initiation of intravenous infusion (4 mL/kg/h). The rats were subjected to the challenge 15 minutes post bolus/infusion initiation. All test article infusions continued to the end of the study period.
Administration of compound XLXI commenced 15 minutes prior to thrombotic challenge, with determination of thrombus mass at 60 minutes post challenge.

[1] = Table 12, read-out: Thrombin IC50
[2] = Table 12, compounds of formula I (R^0 is 2-thiazole), read-out: FXIa IC50

SMILES	IC50 (thrombin; [1])	IC50 (native Factor XIa; [2])	IC50 (Factor Xa; Table 12, read-out: FXa IC50)	IC50 (native Factor XIa)	other results
CC(C)C(NC(=O)C(O)c1cccc(Cl)c1)C(=O)NC(CCCNC(=N)N)C(=O)c1nccs1 (stereo not shown)	0.225 µM	0.116 µM	2.36 µM	–	–
CC(C)C(NC(=O)C(O)c1ccccc1)C(=O)NC(CCCNC(=N)N)C(=O)c1nccs1 (stereo not shown)	0.253 µM	–	1.19 µM	–	–
COC(=O)c1cccc(CS(=O)(=O)NC(C(=O)NC(CC(C)C)C(=O)NC(CCCNC(=N)N)C(=O)c2nccs2)C2CCCCC2)c1 (stereo not shown)	0.02 µM	0.005 µM	0.031 µM	–	–
CC(C)CC(NC(=O)NCc1ccc(Cl)c(Cl)c1)C(=O)NC(C(=O)NC(CCCNC(=N)N)C(=O)c1nccs1)C(C)C (stereo not shown)	0.615 µM	–	20 µM	0.064 µM	–
CCC(C)C(NC(=O)C(CC(C)C)NC(=O)NCc1ccc(Cl)c(Cl)c1)C(=O)NC(CCCNC(=N)N)C(=O)c1nccs1 (stereo not shown)	–	–	–	0.078 µM	IC50 (thrombin): 2.65 µM; IC50 (Factor Xa): 84.9 µM
CC(C)[C@H](NC(=O)[C@H](Cc1cccnc1)NC(=O)N[C@H](C)c1ccc(Br)cc1)C(=O)N[C@@H](CCCNC(=N)N)C(=O)c1nccs1 [Compound 22]	–	–	–	–	specificity for rat Factor XIa relative to native human Factor XIa (fold less) (rat Factor XIa): 11 fold; effect on thrombus formation (venous thrombosis; continuous intravenous administration begun 15 minutes before thrombotic challenge, thrombus mass at 60 minutes post challenge): suppressed the thrombus formation; total dose exposure at which efficacy was observed (venous thrombosis; continuous intravenous infusion, thrombus mass at 60 minutes post challenge): 1.4 mg/kg; efficacy in rat model of venous thrombosis (venous thrombosis; intravenous): statistically significant efficacy; change in thrombus size at the higher dose (venous thrombosis; total dose exposure 4.0 mg/kg compared with 1.4 mg/kg): no further decrease in thrombus size

From patent US7217794B2, “Compounds and methods for treatment of thrombosis” (Daiamed, Inc., priority 2003, dated 2007)
